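Exposure lasted 48 hours, with cells grown in 96-well plates and compounds tested at five concentrations. GI50 is the concentration that inhibits growth by half.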 Activity calls are given as the source filed them. Cut-off read from the data, not from the text of the source: active = GI50 up to about 1.1 µM and inactive = higher.
What was measured:
Assay in all cases: growth of human tumour cells (NCI), 48 h
HOP-18 = test system: HOP-18
DLD-1 = test system: DLD-1
786-0 = test system: 786-0
NCI-H522 = test system: NCI-H522
IGROV-1 = test system: IGROV-1
SN12C = test system: SN12C
U-251 = test system: U-251
OVCAR-5 = test system: OVCAR-5
SNB-78 = test system: SNB-78
HCC 2998 = test system: HCC 2998
EKVX = test system: EKVX
SK-OV-3 = test system: SK-OV-3
SF-295 = test system: SF-295
SNB-75 = test system: SNB-75
OVCAR-8 = test system: OVCAR-8
OVCAR-4 = test system: OVCAR-4
SF-539 = test system: SF-539
LOX IMVI = test system: LOX IMVI
SK-MEL-28 = test system: SK-MEL-28
HT-29 = test system: HT-29
SW-620 = test system: SW-620
HOP-92 = test system: HOP-92
SF-268 = test system: SF-268
RXF 393 = test system: RXF 393
KM12 = test system: KM12
LXFL 529 = test system: LXFL 529
DMS-114 = test system: DMS-114
DMS-273 = test system: DMS-273
NCI-H23 = test system: NCI-H23
CCRF-CEM = test system: CCRF-CEM
NCI-H226 = test system: NCI-H226
KM-20L2 = test system: KM-20L2
Malme-3M = test system: Malme-3M
CAKI-1 = test system: CAKI-1
NCI-H460 = test system: NCI-H460
M19-MEL = test system: M19-MEL
TK-10 = test system: TK-10
A498 = test system: A498
UACC-257 = test system: UACC-257
ACHN = test system: ACHN
XF498 = test system: XF498
K562 = test system: K562
UACC-62 = test system: UACC-62
SNB-19 = test system: SNB-19
SR = test system: SR
HOP-62 = test system: HOP-62
A549 = test system: A549
COLO 205 = test system: COLO 205
HCT-116 = test system: HCT-116
M14 = test system: M14
RPMI-8226 = test system: RPMI-8226
UO-31 = test system: UO-31
OVCAR-3 = test system: OVCAR-3
HL-60 = test system: HL-60
SK-MEL-5 = test system: SK-MEL-5
RXF 631 = test system: RXF 631
MOLT-4 = test system: MOLT-4
HCT-15 = test system: HCT-15

`O=C1CC(CC(=O)C2CCCCC2=O)C(=O)N1` (stereo unspecified) was tested, and the GI50 (HOP-18) was > 100 µM (inactive), the GI50 (DLD-1) was > 100 µM (inactive) and the GI50 (786-0) was > 100 µM (inactive). The GI50 (NCI-H522) was > 100 µM (inactive), the GI50 (IGROV-1) was > 100 µM (inactive) and the GI50 (SN12C) was > 100 µM (inactive). The GI50 (U-251) was > 100 µM (inactive), the GI50 (OVCAR-5) was > 100 µM (inactive) and the GI50 (SNB-78) was > 100 µM (inactive). For the same compound, the GI50 (HCC 2998) was > 100 µM (inactive), the GI50 (EKVX) was > 100 µM (inactive) and the GI50 (SK-OV-3) was > 100 µM (inactive). For the same compound, the GI50 (SF-295) was > 100 µM (inactive), the GI50 (SNB-75) was > 100 µM (inactive) and the GI50 (OVCAR-8) was > 100 µM (inactive). For the same compound, the GI50 (OVCAR-4) was > 100 µM (inactive), the GI50 (SF-539) was > 100 µM (inactive) and the GI50 (LOX IMVI) was > 100 µM (inactive). For the same compound, the GI50 (SK-MEL-28) was > 100 µM (inactive), the GI50 (HT-29) was > 100 µM (inactive) and the GI50 (SW-620) was > 100 µM (inactive). The GI50 (HOP-92) was > 100 µM (inactive), the GI50 (SF-268) was > 100 µM (inactive) and the GI50 (RXF 393) was > 100 µM (inactive). For the same compound, the GI50 (KM12) was > 100 µM (inactive), the GI50 (LXFL 529) was > 100 µM (inactive) and the GI50 (DMS-114) was > 100 µM (inactive). The GI50 (DMS-273) was > 100 µM (inactive), the GI50 (NCI-H23) was > 100 µM (inactive) and the GI50 (CCRF-CEM) was > 100 µM (inactive). For the same compound, the GI50 (NCI-H226) was > 100 µM (inactive), the GI50 (KM-20L2) was > 100 µM (inactive) and the GI50 (Malme-3M) was > 100 µM (inactive). For the same compound, the GI50 (CAKI-1) was > 100 µM (inactive), the GI50 (NCI-H460) was > 100 µM (inactive) and the GI50 (M19-MEL) was > 100 µM (inactive). The GI50 (TK-10) was > 100 µM (inactive), the GI50 (A498) was > 100 µM (inactive) and the GI50 (UACC-257) was > 100 µM (inactive). The GI50 (ACHN) was > 100 µM (inactive), the GI50 (XF498) was > 100 µM (inactive) and the GI50 (K562) was > 100 µM (inactive). For the same compound, the GI50 (UACC-62) was > 100 µM (inactive), the GI50 (SNB-19) was > 100 µM (inactive) and the GI50 (SR) was > 100 µM (inactive). For the same compound, the GI50 (HOP-62) was > 100 µM (inactive), the GI50 (A549) was > 100 µM (inactive) and the GI50 (COLO 205) was > 100 µM (inactive). The GI50 (HCT-116) was > 100 µM (inactive), the GI50 (M14) was > 100 µM (inactive) and the GI50 (RPMI-8226) was > 100 µM (inactive). For the same compound, the GI50 (UO-31) was > 100 µM (inactive), the GI50 (OVCAR-3) was > 100 µM (inactive) and the GI50 (HL-60) was > 100 µM (inactive).

For `O=C(COC(=O)c1cccc2c(=O)c3ccccc3[nH]c12)Nc1ccc(S(=O)(=O)Nc2ncccn2)cc1`, the GI50 (DLD-1) was > 100 µM (inactive), the GI50 (786-0) was 42.2 µM (inactive) and the GI50 (NCI-H522) was 24.4 µM (inactive). For the same compound, the GI50 (IGROV-1) was 39.8 µM (inactive), the GI50 (SN12C) was 59.6 µM (inactive) and the GI50 (U-251) was 24.3 µM (inactive). For the same compound, the GI50 (OVCAR-5) was 39.3 µM (inactive), the GI50 (SNB-78) was 30.6 µM (inactive) and the GI50 (HCC 2998) was 38.8 µM (inactive). For the same compound, the GI50 (EKVX) was 64.1 µM (inactive), the GI50 (SK-OV-3) was 39.5 µM (inactive) and the GI50 (SF-295) was 58.9 µM (inactive). The GI50 (SNB-75) was 30 µM (inactive), the GI50 (OVCAR-8) was 35.8 µM (inactive) and the GI50 (SK-MEL-5) was 82 µM (inactive). The GI50 (OVCAR-4) was 59.2 µM (inactive), the GI50 (SF-539) was 20.5 µM (inactive) and the GI50 (LOX IMVI) was 35.7 µM (inactive). The GI50 (SK-MEL-28) was 32.9 µM (inactive), the GI50 (HT-29) was 31.8 µM (inactive) and the GI50 (SW-620) was 47.2 µM (inactive). For the same compound, the GI50 (HOP-92) was 15.6 µM (inactive), the GI50 (SF-268) was 37 µM (inactive) and the GI50 (RXF 393) was 43.3 µM (inactive). The GI50 (RXF 631) was 94 µM (inactive), the GI50 (KM12) was 43.9 µM (inactive) and the GI50 (LXFL 529) was 47.5 µM (inactive). The GI50 (DMS-114) was 43.4 µM (inactive), the GI50 (DMS-273) was 27.5 µM (inactive) and the GI50 (NCI-H23) was 37.5 µM (inactive). For the same compound, the GI50 (CCRF-CEM) was 27.5 µM (inactive), the GI50 (NCI-H226) was > 100 µM (inactive) and the GI50 (KM-20L2) was 65.9 µM (inactive). For the same compound, the GI50 (Malme-3M) was 49.5 µM (inactive), the GI50 (CAKI-1) was 79.3 µM (inactive) and the GI50 (NCI-H460) was > 100 µM (inactive). For the same compound, the GI50 (M19-MEL) was 48.2 µM (inactive), the GI50 (TK-10) was 39.4 µM (inactive) and the GI50 (A498) was 95.5 µM (inactive). For the same compound, the GI50 (UACC-257) was 66.1 µM (inactive), the GI50 (MOLT-4) was 28.4 µM (inactive) and the GI50 (ACHN) was 36.8 µM (inactive). The GI50 (HCT-15) was over 100 µM, the GI50 (XF498) was 26.5 µM (inactive) and the GI50 (K562) was 38.5 µM (inactive). For the same compound, the GI50 (UACC-62) was 20 µM (inactive), the GI50 (SNB-19) was 38.8 µM (inactive) and the GI50 (SR) was 29 µM (inactive). For the same compound, the GI50 (HOP-62) was 41.6 µM (inactive), the GI50 (A549) was > 100 µM (inactive) and the GI50 (COLO 205) was 59.6 µM (inactive). For the same compound, the GI50 (HCT-116) was 39.6 µM (inactive), the GI50 (M14) was 93.1 µM (inactive) and the GI50 (RPMI-8226) was 51.4 µM (inactive). The GI50 (UO-31) was > 100 µM (inactive), the GI50 (OVCAR-3) was 22.6 µM (inactive) and the GI50 (HL-60) was 30.9 µM (inactive).
